Experimental data published in ChEMBL document CHEMBL1201862, “PubChem BioAssay data set” (2004).
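Method: 48-hour compound exposure of cells in 96-well plates, five concentrations, linear interpolation of endpoints. At the GI50, growth is halved.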 Activity calls are given as the source filed them. Cut-off read from the data, not from the text of the source: active = GI50 up to about 1.1 µM and inactive = higher.

Tests used:
Experiment in all cases: NCI anticancer screen, dose series, 48 h
[1] = system: HCT-116
[2] = system: SN12C
[3] = system: HOP-62
[4] = system: K562
[5] = system: UACC-62
[6] = system: HCT-15
[7] = system: OVCAR-5
[8] = system: SK-MEL-28
[9] = system: SK-MEL-5
[10] = system: OVCAR-3
[11] = system: OVCAR-8
[12] = system: CAKI-1
[13] = system: SK-OV-3
[14] = system: EKVX
[15] = system: SF-268
[16] = system: KM12
[17] = system: HT-29
[18] = system: ACHN
[19] = system: Malme-3M

| Structure (SMILES) | GI50 [1] | GI50 [2] | GI50 [3] | GI50 [4] | GI50 [5] | GI50 [6] [µM] | GI50 [7] | GI50 [8] | GI50 [9] | GI50 [10] | GI50 [11] | GI50 [12] | GI50 [13] | GI50 [14] | GI50 [15] | GI50 [16] | GI50 [17] | GI50 [18] | GI50 [19] |
| --- | --- | --- | --- | --- | --- | --- | --- | --- | --- | --- | --- | --- | --- | --- | --- | --- | --- | --- | --- |
| C=CCOC(OCC=C)/C(Br)=C/C | 13.5 µM (inactive) | > 100 µM (inactive) | > 100 µM (inactive) | > 100 µM (inactive) | 64.4 µM (inactive) | 24 | 49.5 µM (inactive) | > 100 µM (inactive) | 37 µM (inactive) | 47.1 µM (inactive) | 17.7 µM (inactive) | 16.7 µM (inactive) | > 100 µM (inactive) | 35.9 µM (inactive) | 28.8 µM (inactive) | > 100 µM (inactive) | 20.2 µM (inactive) | 17.6 µM (inactive) | – |
| N#Cc1cc2c(n(C3OC(CO)C(O)C(O)C3O)c1=S)CCCCC2 (configuration not stated) | > 100 µM (inactive) | > 100 µM (inactive) | > 100 µM (inactive) | > 100 µM (inactive) | > 100 µM (inactive) | > 100 | > 100 µM (inactive) | > 100 µM (inactive) | > 100 µM (inactive) | > 100 µM (inactive) | > 100 µM (inactive) | > 100 µM (inactive) | – | – | > 100 µM (inactive) | > 100 µM (inactive) | > 100 µM (inactive) | > 100 µM (inactive) | > 100 µM (inactive) |
| NC(=O)N/N=C(\Cc1cc(=O)oc2cc(O)ccc12)C(=O)Nc1ccccc1C(N)=O | > 100 µM (inactive) | > 100 µM (inactive) | > 100 µM (inactive) | – | > 100 µM (inactive) | > 100 | > 100 µM (inactive) | > 100 µM (inactive) | > 100 µM (inactive) | > 100 µM (inactive) | > 100 µM (inactive) | > 100 µM (inactive) | > 100 µM (inactive) | > 100 µM (inactive) | > 100 µM (inactive) | > 100 µM (inactive) | > 100 µM (inactive) | > 100 µM (inactive) | – |
| c1ccc([I+]c2ccccc2)cc1 | > 100 µM (inactive) | > 100 µM (inactive) | > 100 µM (inactive) | > 100 µM (inactive) | – | > 100 | > 100 µM (inactive) | > 100 µM (inactive) | > 100 µM (inactive) | > 100 µM (inactive) | > 100 µM (inactive) | > 100 µM (inactive) | > 100 µM (inactive) | > 100 µM (inactive) | > 100 µM (inactive) | > 100 µM (inactive) | > 100 µM (inactive) | > 100 µM (inactive) | > 100 µM (inactive) |
| COC(CN(C)C(=O)C(C)NC(=O)c1ccccc1)OC (configuration not stated) | > 100 µM (inactive) | > 100 µM (inactive) | – | > 100 µM (inactive) | > 100 µM (inactive) | > 100 | > 100 µM (inactive) | – | > 100 µM (inactive) | – | > 100 µM (inactive) | > 100 µM (inactive) | > 100 µM (inactive) | > 100 µM (inactive) | > 100 µM (inactive) | > 100 µM (inactive) | > 100 µM (inactive) | > 100 µM (inactive) | > 100 µM (inactive) |
| Cc1ccc(OC2CC(n3cnc4c(=O)[nH]c(Br)nc43)OC2Oc2ccc(C)cc2)cc1 (configuration not stated) | 29.2 µM (inactive) | 26.2 µM (inactive) | 24.1 µM (inactive) | 17.1 µM (inactive) | 23.7 µM (inactive) | 30.3 | 21.4 µM (inactive) | – | 22.4 µM (inactive) | 18.5 µM (inactive) | 25.3 µM (inactive) | 24.9 µM (inactive) | 34.5 µM (inactive) | 23.8 µM (inactive) | 22.6 µM (inactive) | 29 µM (inactive) | 28.6 µM (inactive) | 19.8 µM (inactive) | 22.9 µM (inactive) |
| CCOC(=O)[C@@H]1ON2O[C@H](OC3CCCC3(c3ccccc3)c3ccccc3)C[C@H]3OC(=O)[C@@H]1C32 (some centres not stated) | 73.3 µM (inactive) | 97.5 µM (inactive) | > 100 µM (inactive) | 41.2 µM (inactive) | 27 µM (inactive) | 48.3 | > 100 µM (inactive) | – | 75.9 µM (inactive) | 40.9 µM (inactive) | 35.3 µM (inactive) | 22.9 µM (inactive) | > 100 µM (inactive) | > 100 µM (inactive) | 95.9 µM (inactive) | 27.9 µM (inactive) | 23.3 µM (inactive) | 65.5 µM (inactive) | – |
| c1ccc([P+](CCNCCNCC[P+](c2ccccc2)(c2ccccc2)c2ccccc2)(c2ccccc2)c2ccccc2)cc1 | > 100 µM (inactive) | > 100 µM (inactive) | > 100 µM (inactive) | – | > 100 µM (inactive) | > 100 | > 100 µM (inactive) | > 100 µM (inactive) | > 100 µM (inactive) | > 100 µM (inactive) | > 100 µM (inactive) | – | > 100 µM (inactive) | > 100 µM (inactive) | > 100 µM (inactive) | > 100 µM (inactive) | > 100 µM (inactive) | > 100 µM (inactive) | – |
| CCOc1cc(C2CC(c3ccc(NS(=O)(=O)c4cc([N+](=O)[O-])ccc4C)cc3)=NN2C(=O)c2ccccc2)ccc1O (configuration not stated) | 15.3 µM (inactive) | 22.3 µM (inactive) | 17.1 µM (inactive) | 18.2 µM (inactive) | – | 12.9 | 36.6 µM (inactive) | 36.5 µM (inactive) | 15.8 µM (inactive) | 12 µM (inactive) | 15.2 µM (inactive) | 24.7 µM (inactive) | 18.2 µM (inactive) | 18.7 µM (inactive) | 15.7 µM (inactive) | 30.3 µM (inactive) | 26.5 µM (inactive) | 18.5 µM (inactive) | 13.8 µM (inactive) |
| C=C(C)[C@@]1(OC(=O)c2cc([N+](=O)[O-])cc([N+](=O)[O-])c2)C[C@@H]2CCCC[C@@H]21 | > 100 µM (inactive) | > 100 µM (inactive) | 62.4 µM (inactive) | > 100 µM (inactive) | > 100 µM (inactive) | > 100 | > 100 µM (inactive) | > 100 µM (inactive) | > 10 µM (inactive) | – | > 100 µM (inactive) | > 100 µM (inactive) | > 100 µM (inactive) | 37.2 µM (inactive) | > 100 µM (inactive) | > 100 µM (inactive) | 47.9 µM (inactive) | > 100 µM (inactive) | 34.2 µM (inactive) |
| C1=C2SSC3=CC=C(SSc4ccc(s4)SSC4=CC=C(SSC(=C1)S2)S4)S3 | > 100 µM (inactive) | > 100 µM (inactive) | > 100 µM (inactive) | > 100 µM (inactive) | – | > 100 | > 100 µM (inactive) | > 100 µM (inactive) | > 100 µM (inactive) | > 100 µM (inactive) | > 100 µM (inactive) | > 100 µM (inactive) | > 100 µM (inactive) | > 100 µM (inactive) | > 100 µM (inactive) | > 100 µM (inactive) | > 100 µM (inactive) | > 100 µM (inactive) | > 100 µM (inactive) |
| COc1ccc(-n2c(=O)[nH]n(C(C)=O)c2=O)cc1 | > 100 µM (inactive) | > 100 µM (inactive) | – | > 100 µM (inactive) | > 100 µM (inactive) | > 100 | > 100 µM (inactive) | > 100 µM (inactive) | > 100 µM (inactive) | – | > 100 µM (inactive) | > 100 µM (inactive) | – | > 100 µM (inactive) | > 100 µM (inactive) | > 100 µM (inactive) | > 100 µM (inactive) | > 100 µM (inactive) | > 100 µM (inactive) |
| Cc1ccc2nc(-n3c(/C=C/c4ccccc4O)nc4ccccc4c3=O)sc2c1 | > 100 µM (inactive) | – | > 100 µM (inactive) | > 100 µM (inactive) | > 100 µM (inactive) | > 100 | > 100 µM (inactive) | > 100 µM (inactive) | > 100 µM (inactive) | > 100 µM (inactive) | > 100 µM (inactive) | > 100 µM (inactive) | > 100 µM (inactive) | 19.8 µM (inactive) | – | > 100 µM (inactive) | > 100 µM (inactive) | > 100 µM (inactive) | – |
| COc1ccc2c(c1)CCN=C2c1ccccc1CCCCl | 18.2 µM (inactive) | 6.93 µM (inactive) | 28.6 µM (inactive) | 5.62 µM (inactive) | 36.1 µM (inactive) | 23.6 | 46.8 µM (inactive) | > 100 µM (inactive) | 4.99 µM (inactive) | 46.1 µM (inactive) | 16.8 µM (inactive) | 24.4 µM (inactive) | 31.5 µM (inactive) | 17.7 µM (inactive) | 22.2 µM (inactive) | 14.9 µM (inactive) | 13.6 µM (inactive) | 24.3 µM (inactive) | – |
| COC1(OC)C(/C(N)=C\O)=NC(C)(C)N1O | > 100 µM (inactive) | > 100 µM (inactive) | > 100 µM (inactive) | > 100 µM (inactive) | > 100 µM (inactive) | – | > 100 µM (inactive) | > 100 µM (inactive) | 71.6 µM (inactive) | 29.9 µM (inactive) | > 100 µM (inactive) | > 100 µM (inactive) | – | > 100 µM (inactive) | – | > 100 µM (inactive) | > 100 µM (inactive) | > 100 µM (inactive) | > 100 µM (inactive) |
| COC(NC(=O)Nc1ccccc1C)(C(F)(F)F)C(F)(F)F | > 100 µM (inactive) | > 100 µM (inactive) | > 100 µM (inactive) | 77.1 µM (inactive) | 56.6 µM (inactive) | – | > 100 µM (inactive) | > 100 µM (inactive) | > 100 µM (inactive) | > 100 µM (inactive) | > 100 µM (inactive) | – | > 100 µM (inactive) | – | > 100 µM (inactive) | > 100 µM (inactive) | > 100 µM (inactive) | > 100 µM (inactive) | – |
